Assay results from publication doi:10.1101/2024.05.29.596450v1 (biorxiv, 2024).

Tested on: Staphylococcus aureus MRSA (ATCC BAA-44)
Experiment: microbe, parasite or virus in culture
Parameters: species or system Staphylococcus aureus ATCC BAA-44
Conditions: ATCCBAA44|MRSA, 18 h, read-out: %viability

CC1(C)S[C@@H]2[C@H](NC(=O)[C@H](N)c3ccc(O)cc3)C(=O)N2[C@H]1C(=O)O [Amoxicillin] was tested, and the viability at 50 µM was 85%.
